Measured values from patent publication US8663703B2, “Drug microparticles, processes of preparing them and a drug delivery vehicle comprising them” (Teva Pharmaceutical Industries, Ltd., priority 2002, dated 2014).
Values belong to the compound of their own block, whether it stands above or below them.

Assay: Solubility of selected drugs in menthol melt
Format: physicochemical
Method: The following general procedure was repeated with several drugs with menthol carrier.
Menthol (10 grams) was melted on a stirring hot plate with magnetic stirring, then heated to the desired temperature indicated in Table 1. The desired drug was added in small increments (0.1 grams) and stirred to obtain a clear solution. The desired drug was added in increments until no more drug dissolved in the menthol.

Solubility in menthol (menthol melt, 43 °C): 16.0 % w/w
Structure (SMILES): O=C(O)c1ccccc1O [Salicylic acid]

Solubility in menthol (menthol melt, 63 °C): 40.0 % w/w
Structure (SMILES): CC[C@H]1OC(=O)[C@H](C)[C@@H](O[C@H]2C[C@@](C)(OC)[C@@H](O)[C@H](C)O2)[C@H](C)[C@@H](O[C@@H]2O[C@H](C)C[C@H](N(C)C)[C@H]2O)[C@](C)(O)C[C@@H](C)CN(C)[C@H](C)[C@@H](O)[C@]1(C)O [Azithromycin]

Solubility in menthol (in menthol at 60° C. (text of Example 6)): 1%
Solubility in menthol (menthol melt, 61 °C): 1.0 % w/w
Structure (SMILES): CCC(C)n1ncn(-c2ccc(N3CCN(c4ccc(OCC5COC(Cn6cncn6)(c6ccc(Cl)cc6Cl)O5)cc4)CC3)cc2)c1=O (stereo not shown) [Itraconazole]
